# Test results reported in publication PMC11345830, “Exploration of Hydrazide-Based HDAC8 PROTACs for the Treatment of Hematological Malignancies and Solid Tumors” (Journal of Medicinal Chemistry, 2024).
# Columns and labels:
# Assay type in all cases: cell-based
# HCT116 cells [1] = experiment: Cell cycle analysis, HCT116; conditions: 48 h, control group 23.0%
# Procedure: (§1) Jurkat cells (5 × 10^5) and HCT116 cells (3 × 10^5) were seeded on 6-well plates. The next day, cells were treated with indicated concentrations of compounds for 48 h. Cells were harvested after incubation, washed twice in cold PBS, centrifuged, and stained with a solution containing 20 μg/mL of Propidium iodide (PI) and 0.1% (v/v) Triton-X100 for 15 min at room temperature, followed by detection with NovoCyte Quanteon Flow Cytometer (Agilent Technologies, CA, USA).
# HCT116 cells [2] = experiment: Apoptosis assay (Annexin V-FITC/PI flow cytometry), HCT116; design: Q1 (flow cytometry quadrant) / Q2 (flow cytometry quadrant) / Q3 (flow cytometry quadrant) / Q4 (flow cytometry quadrant): unit not given here; conditions: 48 h
# Procedure: The cell apoptosis assay was performed using eBioscience Annexin V-FITC/PI Apoptosis Detection Kit (Thermo Fisher Scientific, Carlsbad, CA, USA). Jurkat cells (5 × 10^5) and HCT116 cells (3 × 10^5) were treated with different concentrations of test compounds for 24 or 48 h. Cells were harvested after incubation, washed twice in cold PBS, centrifuged, and resuspended in 1X annexin-binding buffer. According to the manufacturer’s instructions, cells were incubated with Annexin V and Propidium iodide (PI) sequentially. All samples were analyzed by NovoCyte Quanteon Flow Cytometer (Agilent Technologies, CA, USA).
# Jurkat cells [3] = experiment: Cell cycle analysis, Jurkat; conditions: 48 h, control group 43.5%
# Procedure: as §1
# Jurkat cells [4] = experiment: Cell death determination by flow cytometry (Hoechst 33342/PI), Jurkat; conditions: 5 μM, 48 h
# Procedure: Jurkat cells (5 × 10^5) were seeded on 6-well plates. The next day, cells were treated with indicated concentrations of compounds for 48 h. Cells were harvested after incubation, washed twice in cold PBS, centrifuged, and stained with 7 μM Hoechst 33342 and 2 μM of Propidium iodide (PI) sequentially, and then determined by NovoCyte Quanteon Flow Cytometer (Agilent Technologies, CA, USA). Cells stained only with Hoechst 33342 were counted as live cells, while cells stained with both Hoechst 33342 and PI were counted as dead cells.
compound,measurement,setting,value
"CCCCCCNNC(=O)c1ccc(CNC(=O)CN2CCC(c3ccc(NC4CCC(=O)NC4=O)cc3)CC2)cc1 (stereo not shown) [Z16, 2-(4-(4-((2,6-Dioxopiperidin-3-yl)amino)phenyl)piperidin-1-yl)-N-(4-(2-hexylhydrazine-1-carbonyl)benzyl)acetamide]",proportion of cells at G2/M phase,HCT116 cells [1]; 0.13 μM,24.1%
same,proportion of cells at G2/M phase,HCT116 cells [1]; 0.37 μM,26.4%
same,proportion of cells at G2/M phase,HCT116 cells [1]; 1.1 μM,26.2%
same,proportion of cells at G2/M phase,HCT116 cells [1]; 3.3 μM,38.8%
same,Q1 (flow cytometry quadrant),HCT116 cells [2]; 1.1 μM,4.38
same,Q2 (flow cytometry quadrant),HCT116 cells [2]; 1.1 μM,5.93
same,Q3 (flow cytometry quadrant),HCT116 cells [2]; 1.1 μM,10.3
same,Q4 (flow cytometry quadrant),HCT116 cells [2]; 1.1 μM,79.4
same,Q1 (flow cytometry quadrant),HCT116 cells [2]; 3.3 μM,2.37
same,Q2 (flow cytometry quadrant),HCT116 cells [2]; 3.3 μM,32.3
same,Q3 (flow cytometry quadrant),HCT116 cells [2]; 3.3 μM,44.6
same,Q4 (flow cytometry quadrant),HCT116 cells [2]; 3.3 μM,20.7
same,apoptosis induced,HCT116 cells [2]; 3.3 μM,over 70%
same,Q1 (flow cytometry quadrant),HCT116 cells [2]; 10 μM,2.80
same,Q2 (flow cytometry quadrant),HCT116 cells [2]; 10 μM,57.3
same,Q3 (flow cytometry quadrant),HCT116 cells [2]; 10 μM,24.9
same,Q4 (flow cytometry quadrant),HCT116 cells [2]; 10 μM,15.1
same,proportion of cells at G0/G1 phase,Jurkat cells [3]; 0.13 μM,48.4%
same,proportion of cells at G0/G1 phase,Jurkat cells [3]; 0.37 μM,52.2%
same,proportion of cells at G0/G1 phase,Jurkat cells [3]; 1.1 μM,61%
same,proportion of cells at G0/G1 phase,Jurkat cells [3]; 3.3 μM,68.2%
same,cell death induced,Jurkat cells [4],10%
